Test results taken from patent US11795195B2, “Antibody-drug conjugates including hemiasterlin derivative” (Sumitomo Pharma Co., Ltd., priority 2017, dated 2023).
pIC50: −log10 of the molar value.

What was measured:
Karpas-299 cells = test: Cellular Toxicity Test (1), CellTiter-Glo cell viability; type: cell-based, human; details: Homo sapiens, 96 h, cultured 4 days, cell viability
Description: Karpas-299 cells (European Collection of Authenticated Cell Cultures, hereinafter, ECACC), which are human lymphoma cell lines, were cultured in RPMI 1640 (GIBCO) containing 10% fetal bovine serum (MP Biomedicals) (hereinafter, referred to as the “culture medium”). Cells were prepared to be 2×10^6 cells/mL in the culture medium, and were added to a 96 well microplate for cell culturing in an amount of 50 μL for each well. Compounds of Examples or Comparative Example compound 4 times diluted with the culture medium in 8 stages were added to the microplate in an amount of 50 μL for each well. These were cultured at 37 degree under 5% CO2 for 4 days. After culturing, the microplate was taken out from the incubator, and was left at rest at room temperature for 10 minutes. To each well, 50 μL of CellTiter-Glo Luminescent Cell Viability Assay (Promega) was added, and the resultant mixture was stirred. This mixture was incubated at a dark place for 20 minutes. Using a microplate luminometer, luminescence at each well was measured, thereby calculating the cell viability. In addition, from the value of cell viability, the IC50 value was calculated.
The IC50 value was calculated by the following formula: IC50 (nM)=antilog(LOG10(a/b)×(e−d)/(c−d)+LOG10b) a: concentration a of test substance b: concentration b of test substance c: cell viability upon adding test substance with concentration a d: cell viability upon adding test substance with concentration b e: intermediate value between maximum and minimum among cell viabilities upon adding test substances with different concentrations (a and b are concentrations crossing the cell viability e, and a>b is indicated).
The cell viability at each concentration was calculated by the following formula: Cell Viability (%)=a′/b′×100 a′: mean value of luminescence amount of wells to which test substance was added (n=6) b′: mean value of luminescence amount of wells to which test substance was not added (n=6) (n represents the number of evaluations performed per test substance concentration).

[1] = Membrane Permeability Test, parallel artificial membrane permeability assay (PAMPA); type: in vitro ADME; details: pH 7.4, pH7.4, 37° C., read-out: Pe (pH7.4)
Description: By the parallel artificial membrane permeability assay (PAMPA), the membrane permeability of compounds of Examples was examined as follows: To the donor plate, System solution (pION inc.) and GIT Lipid-0 (pION inc.) were added in an amount of 200 μL and 4 μL for each well, respectively. To the acceptor plate, Acceptor Sink Buffer (pION inc.) was added in an amount of 200 μL. Both plates were superposed and incubated at 37° C. for 4 hours, and then, UVs in the solutions on the side of acceptor and on the side of donor were measured with an UV plate reader (190 to 500 nm). Compounds with poor UV absorption were measured by LC-MS. The permeability coefficient Pe (10^−6 cm/sec) of the drug was calculated by the following formula.
[formula] • ra=(VD/VA)Pa^(A-D)/Pa^(D-A)=rVPe^(A-D)/Pa^(D-A) • rV=(VD/VA) • VD=volume of doner well • VA=volume of acceptor well • t=permeation time • τ^SS=steady state time • R=retention • CD=CA=concentration in donor and acceptor well

CN[C@H](C(=O)N[C@H](C(=O)N(C)[C@H](/C=C(\C)C(=O)N[C@H](CCC(=O)NCCN1C(=O)C=CC1=O)C(=O)O)C(C)C)C(C)(C)C)C(C)(C)c1cccc(C)c1 [Example M42] showed a pIC50 (Karpas-299 cells) of 7.04 and a Papp at 4 h [1] of 4.9 ×10⁻⁶ cm/s.

Work on CN[C@H](C(=O)N[C@H](C(=O)N(C)[C@H](/C=C(\C)C(=O)N[C@@H](CCC(=O)O)C(=O)NCCN1C(=O)C=CC1=O)C(C)C)C(C)(C)C)C(C)(C)c1ccccc1 [Example M12] yielded a pIC50 (Karpas-299 cells) of 7.53 and a Papp at 4 h [1] of less than 0.1 ×10⁻⁶ cm/s.

In the case of CN[C@H](C(=O)N[C@H](C(=O)N(C)[C@H](/C=C(\C)C(=O)N[C@H](CCC(=O)NCCN1C(=O)C=CC1=O)C(=O)O)C(C)C)C(C)(C)C)C(C)(C)C1CCCCC1 [Example M33], the pIC50 (Karpas-299 cells) was 6.64 and the Papp at 4 h [1] was less than 0.1 ×10⁻⁶ cm/s.

CN[C@H](C(=O)N[C@H](C(=O)N(C)[C@H](/C=C(\C)C(=O)N[C@H](CCC(=O)NCCN1C(=O)C=CC1=O)C(=O)O)C(C)C)C(C)(C)C)C(C)(C)c1cccc(OC)c1 [Example M37] showed a pIC50 (Karpas-299 cells) of 6.39 and a Papp at 4 h [1] of less than 0.1 ×10⁻⁶ cm/s.

For CN[C@H](C(=O)N[C@H](C(=O)N(C)[C@H](/C=C(\C)C(=O)N[C@@H](CC(=O)NCCN1C(=O)C=CC1=O)C(=O)O)C(C)C)C(C)(C)C)C(C)(C)c1ccccc1 [Example M10], the pIC50 (Karpas-299 cells) was 6.26 and the Papp at 4 h [1] was less than 0.1 ×10⁻⁶ cm/s.

In the case of CNC(C(=O)N[C@H](C(=O)N(C)[C@H](/C=C(\C)C(=O)N[C@H](CCC(=O)O)C(=O)O)C(C)C)C(C)(C)C)C(C)(C)c1ccc(C(=O)NCCN2C(=O)C=CC2=O)cc1 (stereo partly drawn) [Example M47, ((4S,E)-4-((2 S)-2-(3-(4-((2-(2,5-Dioxo-2,5-dihydro-1H-pyrrol-1-yl)ethyl)carbamoyl)phenyl)-3-methyl-2-(methylamino)butanamido)-N,3,3-trimethylbutanamido)-2,5-dimethylhex-2-enoyl)-D-glutamic Acid], the pIC50 (Karpas-299 cells) was less than 6.00 and the Papp at 4 h [1] was 1.2 ×10⁻⁶ cm/s.

CN[C@H](C(=O)N[C@H](C(=O)N(C)[C@H](/C=C(\C)C(=O)N[C@H](CC(=O)NCCN1C(=O)C=CC1=O)C(=O)O)C(C)C)C(C)(C)C)C(C)(C)c1cn(C)c2ccccc12 [Example M20] gave a pIC50 (Karpas-299 cells) of 6.39 and a Papp at 4 h [1] of less than 0.1 ×10⁻⁶ cm/s.

Work on CN[C@H](C(=O)N[C@H](C(=O)N(C)[C@H](/C=C(\C)C(=O)NCCCC[C@@H](NC(=O)CCCN1C(=O)C=CC1=O)C(=O)O)C(C)C)C(C)(C)C)C(C)(C)c1ccccc1 [Example M28] yielded a pIC50 (Karpas-299 cells) of 7.29 and a Papp at 4 h [1] of less than 0.1 ×10⁻⁶ cm/s.

Compound CN[C@H](C(=O)N[C@H](C(=O)N(C)[C@H](/C=C(\C)C(=O)N[C@H](CCC(=O)NCCCN1C(=O)C=CC1=O)C(=O)O)C(C)C)C(C)(C)C)C(C)(C)c1cn(C)c2ccccc12 [Example M23] has a pIC50 (Karpas-299 cells) of 7.30 and a Papp at 4 h [1] of less than 0.1 ×10⁻⁶ cm/s.

With CNC(C(=O)N[C@H](C(=O)N(C)[C@H](/C=C(\C)C(=O)N[C@H](CCC(=O)O)C(=O)O)C(C)C)C(C)(C)C)C(C)(C)c1ccc(OC(=O)CCN2C(=O)C=CC2=O)cc1 (stereo partly shown) [Example M30] the Papp at 4 h [1] was less than 0.1 ×10⁻⁶ cm/s.

For CN[C@H](C(=O)N[C@H](C(=O)N(C)[C@H](/C=C(\C)C(=O)N[C@@H](CC(=O)O)C(=O)NCCN1C(=O)C=CC1=O)C(C)C)C(C)(C)C)C(C)(C)c1cn(C)c2ccccc12 [Example M21], the pIC50 (Karpas-299 cells) was 6.65 and the Papp at 4 h [1] was less than 0.1 ×10⁻⁶ cm/s.

In the case of CN[C@H](C(=O)N[C@H](C(=O)N(C)[C@H](/C=C(\C)C(=O)N[C@H](CCC(=O)NCCCN1C(=O)C=CC1=O)C(=O)O)C(C)C)C(C)(C)C)C(C)(C)c1ccccc1 [Example M16], the pIC50 (Karpas-299 cells) was 6.24.

Work on CNC(C(=O)N[C@H](C(=O)N(C)[C@H](/C=C(\C)C(=O)N[C@H](CCC(=O)NCCN1C(=O)C=CC1=O)C(=O)O)C(C)C)C(C)(C)C)C(C)(C)c1ccc(O)cc1 (stereo partly shown) [Example M34] yielded a pIC50 (Karpas-299 cells) of 8.10 and a Papp at 4 h [1] of 2.7 ×10⁻⁶ cm/s.

Compound CN[C@H](C(=O)N[C@H](C(=O)N(C)[C@H](/C=C(\C)C(=O)N[C@@H](CCC(=O)NCCN1C(=O)C=CC1=O)C(=O)O)C(C)C)C(C)(C)C)C(C)(C)c1cn(C)c2ccccc12 [Example M18] has a pIC50 (Karpas-299 cells) of 6.83 and a Papp at 4 h [1] of less than 0.1 ×10⁻⁶ cm/s.

CN[C@H](C(=O)N[C@H](C(=O)N(C)[C@H](/C=C(\C)C(=O)N[C@@H](CC(=O)O)C(=O)NCCN1C(=O)C=CC1=O)C(C)C)C(C)(C)C)C(C)(C)c1ccccc1 [Example M14] gave a pIC50 (Karpas-299 cells) of less than 6.00.

C/C(=C\[C@H](C(C)C)N(C)C(=O)[C@@H](NC(=O)[C@@H](N(C)C)C(C)(C)c1ccccc1)C(C)(C)C)C(=O)N[C@H](CCC(=O)NCCN1C(=O)C=CC1=O)C(=O)O [Example M49, N^2—((S,E)-4-((S)-2-((S)-2-(Dimethylamino)-3-methyl-3-phenylbutanamido)-N,3,3-trimethylbutanamido)-2,5-dimethylhex-2-enoyl)-N^5-(2-(2,5-dioxo-2,5-dihydro-1H-pyrrolo-1-yl)ethyl)-D-glutamine] showed a pIC50 (Karpas-299 cells) of less than 6.00.

With CN[C@H](C(=O)N[C@H](C(=O)N(C)[C@H](/C=C(\C)C(=O)N[C@H](CCC(=O)N[C@@H](CCCCNC(=O)CCCCCN1C(=O)C=CC1=O)C(=O)O)C(=O)O)C(C)C)C(C)(C)C)C(C)(C)c1cn(C)c2ccccc12 [Example M2, N-{(2E,4S)-2,5-Dimethyl-4-[methyl(N,β,β,1-tetramethyl-L-tryptophyl-3-methyl-L-valyl)amino]hex-2-enoyl}-D-γ-glutamyl-N^6-[6-(2,5-dioxo-2,5-dihydro-1H-pyrrol-1-yl)hexanoyl]-L-lysine] the pIC50 (Karpas-299 cells) was 6.11 and the Papp at 4 h [1] was less than 0.1 ×10⁻⁶ cm/s.

With CN[C@@H](C(=O)N[C@H](C(=O)N(C)[C@H](/C=C(\C)C(=O)N[C@H](CCC(=O)NCCN1C(=O)C=CC1=O)C(=O)O)C(C)C)C(C)(C)C)C(C)(C)c1cccc(Br)c1 [Example M45] the pIC50 (Karpas-299 cells) was 6.72 and the Papp at 4 h [1] was 4 ×10⁻⁶ cm/s.

Compound CN[C@H](C(=O)N[C@H](C(=O)N(C)[C@H](/C=C(\C)C(=O)N[C@H](CC(=O)O)C(=O)NCCN1C(=O)C=CC1=O)C(C)C)C(C)(C)C)C(C)(C)c1ccccc1 [Example M13] has a pIC50 (Karpas-299 cells) of 6.00.

CN[C@H](C(=O)N[C@H](C(=O)N(C)[C@H](/C=C(\C)C(=O)N[C@H](CCC(=O)NCCN1C(=O)C=CC1=O)C(=O)O)C(C)C)C(C)(C)C)C(C)(C)c1cccc(Br)c1 [Example M44] showed a pIC50 (Karpas-299 cells) of 8.04 and a Papp at 4 h [1] of 6.8 ×10⁻⁶ cm/s.

Work on CN[C@H](C(=O)N[C@H](C(=O)N(C)[C@H](/C=C(\C)C(=O)N[C@H](CCC(=O)N[C@@H](CCCCNC(=O)CCN1C(=O)C=CC1=O)C(=O)O)C(=O)O)C(C)C)C(C)(C)C)C(C)(C)c1cn(C)c2ccc(F)cc12 [Example M26] yielded a pIC50 (Karpas-299 cells) of 7.10 and a Papp at 4 h [1] of less than 0.1 ×10⁻⁶ cm/s.

Compound CN[C@H](C(=O)N[C@H](C(=O)N(C)[C@H](/C=C(\C)C(=O)N[C@@H](CCC(=O)O)C(=O)NCCN1C(=O)C=CC1=O)C(C)C)C(C)(C)C)C(C)(C)c1cn(C)c2ccccc12 [Example M22] has a pIC50 (Karpas-299 cells) of 6.81 and a Papp at 4 h [1] of less than 0.1 ×10⁻⁶ cm/s.

CN[C@H](C(=O)N[C@H](C(=O)N(C)[C@H](/C=C(\C)C(=O)N[C@H](CCC(=O)O)C(=O)NCCN1C(=O)C=CC1=O)C(C)C)C(C)(C)C)C(C)(C)c1ccccc1 [Example M15] showed a pIC50 (Karpas-299 cells) of less than 6.00.

Compound CN[C@H](C(=O)N[C@H](C(=O)N(C)[C@H](/C=C(\C)C(=O)N[C@H](CCC(=O)NCCN1C(=O)C=CC1=O)C(=O)O)C(C)C)C(C)(C)C)C(C)(C)c1cccs1 [Example M39] has a pIC50 (Karpas-299 cells) of 6.42 and a Papp at 4 h [1] of less than 0.1 ×10⁻⁶ cm/s.

CN[C@H](C(=O)N[C@H](C(=O)N(C)[C@H](/C=C(\C)C(=O)N[C@H](CCC(=O)NCCN1C(=O)C=CC1=O)C(=O)O)C(C)C)C(C)(C)C)C(C)(C)c1cccc(C(F)(F)F)c1 [Example M31] showed a pIC50 (Karpas-299 cells) of 6.71 and a Papp at 4 h [1] of 1 ×10⁻⁶ cm/s.

CN[C@H](C(=O)N[C@H](C(=O)N(C)[C@H](/C=C(\C)C(=O)N[C@H](CCC(=O)NCCN1C(=O)C=CC1=O)C(=O)O)C(C)C)C(C)(C)C)C(C)(C)c1ccc2ccccc2c1 [Example M40] gave a pIC50 (Karpas-299 cells) of 6.75 and a Papp at 4 h [1] of less than 0.1 ×10⁻⁶ cm/s.

For C/C(=C\[C@H](C(C)C)N(C)C(=O)[C@@H](NC(=O)[C@H]1CCCCN1C(C)C)C(C)(C)C)C(=O)N[C@H](CCC(=O)NCCN1C(=O)C=CC1=O)C(=O)O [Example M43], the pIC50 (Karpas-299 cells) was 8.42 and the Papp at 4 h [1] was 2 ×10⁻⁶ cm/s.

CN[C@H](C(=O)N[C@H](C(=O)N(C)[C@H](/C=C(\C)C(=O)N[C@H](CC(=O)O)C(=O)NCCN1C(=O)C=CC1=O)C(C)C)C(C)(C)C)C(C)(C)c1cn(C)c2ccccc12 [Example M24] gave a pIC50 (Karpas-299 cells) of 6.78 and a Papp at 4 h [1] of less than 0.1 ×10⁻⁶ cm/s.

CN[C@H](C(=O)N[C@H](C(=O)N(C)[C@H](/C=C(\C)C(=O)N[C@H](CCC(=O)NCCN1C(=O)C=CC1=O)C(=O)O)C(C)C)C(C)(C)C)C(C)(C)c1cccc(C#N)c1 [Example M35] gave a pIC50 (Karpas-299 cells) of 8.07 and a Papp at 4 h [1] of 0.8 ×10⁻⁶ cm/s.
